Experiment [1] deals with MCF-7 breast tumour cell line. Briefly: Tumor cell proliferation assay (CellTiter-Glo), MCF-7. Format: cell-based. Conditions: Homo sapiens, MCF7, 72 h drug exposure, read-out: MCF-7 median IC50. A general note: Cellular ATP, detected with luciferase, serves as a proxy for viable cell number.
Description: Biological Assay 4.0: Tumor Cell Proliferation Assays
Compounds were tested in a cell-based assay that measures the capacity of the compounds to inhibit tumour cell proliferation following a 72 h drug exposure. Cell viability is determined using CellTiter-Glow® (CTG, Promega, cat#G7571/2/3). The CellTiter-Glo® Luminescent Cell Viability Assay is a homogeneous method to determine the number of viable cells in culture.
Detection is based on using the luciferase reaction to measure the amount of ATP from viable cells. The amount of ATP in cells correlates with cell viability. Within minutes after a loss of membrane integrity, cells lose the ability to synthesize ATP, and endogenous ATPases destroy any remaining ATP; thus the levels of ATP fall precipitously.
For each cell line assayed, cells were plated onto a separate plate for determination of fluorescence at t=0 hour and t=72 hour time points. Following overnight incubation at 37° C., chemiluminescence values for the t=0 samples were determined after adding 10 μl medium and 100 μl CTG solution according to manufacture protocol. Plates for the t=72 hour time points were treated with compounds diluted into growth medium at ten times final concentration added in 10 μL to the cell culture plate. Cells were then incubated for 72 hours at 37° C. Chemiluminescence values for the t=72 hour samples were determined. […] Experiments were controlled using a reference compound as standard.
Experiment [2] addresses His-tagged human recombinant kinase full-length Akt2 (Homo sapiens (Human), UniProt P31751). Put plainly: Akt2 kinase assay (Akt2 TR-FRET assay). Conditions: 10 μM ATP, 60 min at 22° C., read-out: Akt2 median IC50. Format: biochemical. For orientation: In TR-FRET formats the signal depends on donor and acceptor labels being close together.
Another experiment concerns phospho-AKT at S473. Put plainly: Cellular p-AKT1/2/3-S473 assay in KPL-4 cells. The class given is cell-based. Conditions: Homo sapiens, KPL4; KPL-4 breast tumour cell line, compound treatment 2 hours; read-out: pAKT-S473 median IC50.
For experiment [3], the target named is His-tagged human recombinant kinase full-length Akt1 (Homo sapiens (Human), UniProt P31749). Put plainly: Akt1 kinase assay (Akt1 TR-FRET assay). Format: biochemical. Conditions: 10 μM ATP, 60 min at 22° C., read-out: Akt1 median IC50.
Chain of His-tagged human recombinant kinase full-length Akt1 (P31749 whole entry): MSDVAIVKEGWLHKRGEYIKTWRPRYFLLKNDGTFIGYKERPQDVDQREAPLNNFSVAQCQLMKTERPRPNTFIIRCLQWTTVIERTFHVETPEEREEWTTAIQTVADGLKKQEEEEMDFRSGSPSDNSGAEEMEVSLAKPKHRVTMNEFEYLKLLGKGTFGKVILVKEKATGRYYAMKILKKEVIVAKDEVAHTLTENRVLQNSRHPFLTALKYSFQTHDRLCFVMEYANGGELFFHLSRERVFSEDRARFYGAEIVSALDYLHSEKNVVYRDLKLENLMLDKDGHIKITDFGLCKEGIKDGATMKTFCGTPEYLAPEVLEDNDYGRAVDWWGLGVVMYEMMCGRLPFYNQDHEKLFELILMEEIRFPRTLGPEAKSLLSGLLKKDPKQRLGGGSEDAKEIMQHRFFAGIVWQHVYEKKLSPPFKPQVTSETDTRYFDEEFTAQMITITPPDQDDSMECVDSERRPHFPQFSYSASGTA
Excerpt: Biological Assay 1.0: Akt1 Kinase Assay
Akt1 inhibitory activity of compounds of the present invention was quantified employing the Akt1 TR-FRET assay as described in the following paragraphs.
His-tagged human recombinant kinase full-length Akt1 expressed in insect cells was purchased form Invitrogen (part number PV 3599). As substrate for the kinase reaction the biotinylated peptide biotin-Ahx-[sequence] (C-terminus in amide form) was used which can be purchased e.g. from the company Biosynthan GmbH (Berlin-Buch, Germany).
For the assay 50 nl of a 100 fold concentrated solution of the test compound in DMSO was pipetted into a black low volume 384 well microtiter plate (Greiner Bio-One, Frickenhausen, Germany), 2 μl of a solution of Akt1 in assay buffer [50 mM TRIS/HCl pH 7.5, 5 mM MgCl2, 1 mM dithiothreitol, 0.02% (v/v) Triton X-100 (Sigma)] were added and the mixture was incubated for 15 min at 22° C. to allow pre-binding of the test compounds to the enzyme before the start of the kinase reaction. Then the kinase reaction was started by the addition of 3 μl of a solution of adenosine-tri-phosphate (ATP, 16.7 μM=>final conc. in the 5 μl assay volume is 10 μM) and substrate (1.67 μM=>final conc. in the 5 μl assay volume is 1 μM) in assay buffer and the resulting mixture was incubated for a reaction time of 60 min at 22° C. The concentration of Akt1 in the assay was adjusted depending of the activity of the enzyme lot and was chosen appropriate to have the assay in the linear range, typical enzyme concentrations were in the range of about 0.05 ng/μl (final conc. in the 5 μl assay volume). The reaction was stopped by the addition of 5 μl of a solution of HTRF detection reagents (200 nM streptavidine-XL665 [Cisbio] and 1.5 nM anti-phosho-Serine antibody [Millipore, cat. #35-001] and 0.75 nM LANCE Eu-W 1024 labeled anti-mouse IgG antibody [Perkin Elmer]) in an aqueous EDTA-solution (100 mM EDTA, 0.1% (w/v) bovine serum albumin in 50 mM HEPES/NaOH pH 7.5). The resulting mixture was incubated 1 h at 22° C. to allow the binding of the biotinylated phosphorylated peptide to the streptavidine-XL665 and the antibodies. Subsequently the amount of phosphorylated substrate was evaluated by measurement of the resonance energy transfer from the anti-mouse-IgG-Eu-Chelate to the streptavidine-XL665. Therefore, the fluorescence emissions at 620 nm and 665 nm after excitation at 350 nm was measured in a HTRF reader, e.g. a Rubystar (BMG Labtechnologies, Offenburg, Germany) or a Viewlux (Perkin-Elmer). The ratio of the emissions at 665 nm and at 622 nm was taken as the measure for the amount of phosphorylated substrate.
Experiment [4] deals with KPL-4 breast cancer cell line. Briefly: Tumor cell proliferation assay (CellTiter-Glo), KPL-4. Format: cell-based. Particulars: Homo sapiens, KPL4, 72 h drug exposure, read-out: KLP-4 median IC50.
The subject of another experiment is p-4E-BP1 at T70. Briefly: Cellular p-4E-BP1-T70 assay in KPL-4 cells. Format: cell-based. Conditions: Homo sapiens, KPL4; KPL-4 breast tumour cell line, compound treatment 2 hours; read-out: P4EBP1-T70 median IC50.

The results in this text go back to US9604989B2, “Imidazopyridazines as Akt kinase inhibitors” (Bayer Intellectual Property GmbH, priority 2011, dated 2017).

Chain of His-tagged human recombinant kinase full-length Akt2 (P31751 whole entry): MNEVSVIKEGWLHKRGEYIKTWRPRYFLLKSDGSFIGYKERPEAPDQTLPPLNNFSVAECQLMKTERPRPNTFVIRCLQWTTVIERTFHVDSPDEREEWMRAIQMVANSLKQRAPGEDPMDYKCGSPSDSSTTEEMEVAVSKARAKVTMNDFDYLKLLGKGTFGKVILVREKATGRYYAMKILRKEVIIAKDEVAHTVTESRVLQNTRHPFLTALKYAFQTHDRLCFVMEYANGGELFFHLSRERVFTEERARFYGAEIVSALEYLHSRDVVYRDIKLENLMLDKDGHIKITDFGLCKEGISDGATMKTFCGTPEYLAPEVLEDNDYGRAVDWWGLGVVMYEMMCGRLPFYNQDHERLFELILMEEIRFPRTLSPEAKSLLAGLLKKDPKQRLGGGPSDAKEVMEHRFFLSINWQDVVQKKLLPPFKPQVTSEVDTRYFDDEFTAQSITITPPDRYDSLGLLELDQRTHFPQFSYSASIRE
Description for p-4E-BP1 at T70: (§1) The molecular mechanism of action was investigated in a set of experiments to assess the inhibition of the PI3K-AKT-mTOR pathway in responsive cell lines such as KPL-4 breast tumour cell line (PIK3CA^H1047R, HER2^O/E and hormone independent). The phospho-substrates of PI3K-AKT-mTOR axis were used as the read-outs to reflect pathway inhibition. Cells were seeded at 60-80% confluency per well in 96-well cell culture plates. After overnight incubation at 37° C. 5% CO2, cells were treated with compounds and vehicle at 37° C. for 2 hours. […] All measurements where at least done in duplicates and confirmed by independent repetition.
Description for phospho-AKT at S473: as §1
Alternatively pAKT-S473 was measured using the “Akt Duplex” of the MULTI-SPOT® Assay System (Fa. Meso Scale Discovery, Cat#N41100B-1) following manufacturers instructions. Each assay used 20 μg of protein extract and measured total AKT and p-AKT content simultaneously in one well. All measurements where at least done in duplicates and confirmed by independent repetition. Values for P-AKT are expressed as percentage of P-AKT level compared to total-AKT content of the extracts.

As usually defined, the IC50 is the concentration that gives 50% inhibition. As to `NC1(c2ccc(-c3nc4c(-c5cc[nH]n5)cc(Cl)nn4c3-c3ccccc3)cc2)CCC1` [Example 19, 1-{4-[6-Chloro-3-phenyl-8-(1H-pyrazol-3-yl)imidazo[1,2-b]pyridazin-2-yl]phenyl} cyclobutanamine], the IC50 is 1.8 µM in experiment [1]; 0.042 µM in experiment [2]; 0.39 µM in the experiment with phospho-AKT at S473; 0.015 µM in experiment [3]; 2 µM in experiment [4]; 5.1 µM with p-4E-BP1 at T70.
As for `C=Cc1cc(-c2cc[nH]n2)c2nc(-c3ccc(C4(N)CCC4)cc3)c(-c3ccccc3)n2n1` [Example 20, 1-{4-[3-Phenyl-8-(1H-pyrazol-3-yl)-6-vinylimidazo [1,2-b]pyridazin-2-yl]phenyl}cyclobutanamine], the 50% inhibitory concentration (IC50) in experiment [1] is 1.8 µM; in experiment [2] it was 0.17 µM; in the experiment with phospho-AKT at S473, 0.52 µM; in experiment [3], 0.12 µM; in experiment [4] it was 2.6 µM; in the experiment with p-4E-BP1 at T70, 1.5 µM.
For the compound `CCc1cc(-c2cc[nH]n2)c2nc(-c3ccc(C4(N)CCC4)cc3)c(-c3ccccc3)n2n1` [Example 21, 1-{4-[6-Ethyl-3-phenyl-8-(1H-pyrazol-3-yl)imidazo [1,2-b]pyridazin-2-yl]phenyl}cyclobutanamine], the half-maximal inhibitory concentration (IC50) in experiment [1] came out at 1.8 µM; in experiment [2], 0.13 µM; with phospho-AKT at S473, 0.42 µM; in experiment [3] it was 0.073 µM; in experiment [4] it was 2 µM; with p-4E-BP1 at T70, 1.7 µM.
Turning to `Cn1nccc1-c1cc(Cl)nn2c(-c3ccccc3)c(-c3ccc(C4(N)CCC4)cc3)nc12` [Example 23, 1-{4-[6-Chloro-8-(1-methyl-1H-pyrazol-5-yl)-3-phenylimidazo[1,2-b]pyridazin-2-yl]phenyl} cyclobutanamine], the half-inhibitory concentration (IC50) came out at 2.1 µM in experiment [1]; 0.19 µM in experiment [2]; 1.4 µM in the experiment on phospho-AKT at S473; 1.2 µM in experiment [3]; 2.2 µM in experiment [4]; 2.9 µM with p-4E-BP1 at T70.
`NC1(c2ccc(-c3nc4cccnn4c3-c3ccccc3)cc2)CCC1` [Example 25, 1-[4-(3-Phenylimidazo[1,2-b]pyridazin-2-yl)phenyl]cyclobutanamine]: the IC50 amounted to 1.9 µM in experiment [1]; 0.16 µM in experiment [2]; 0.09 µM in the experiment with phospho-AKT at S473; 0.19 µM in experiment [3]; 2 µM in experiment [4]; 0.55 µM in the experiment on p-4E-BP1 at T70.
For the compound `NC1(c2ccc(-c3nc4c(-c5cc[nH]n5)ccnn4c3-c3ccccc3)cc2)CCC1` [Example 27, 1-{4-[3-Phenyl-8-(1H-pyrazol-3-yl)imidazo[1,2-b]pyridazin-2-yl]phenyl}cyclobutanamine], the half-inhibitory concentration (IC50) in experiment [1] turned out to be 1.8 µM; in experiment [2], 0.029 µM; with phospho-AKT at S473, 0.036 µM; in experiment [3], 0.015 µM; in experiment [4], 1.8 µM; in the experiment on p-4E-BP1 at T70, 0.48 µM.
For the compound `NC1(c2ccc(-c3nc4c(OCc5ccccc5)cc(Cl)nn4c3-c3ccccc3)cc2)CCC1` [Example 29, 1-{4-[8-(Benzyloxy)-6-chloro-3-phenylimidazo[1,2-b]pyridazin-2-yl]phenyl}cyclobutanamine], the half-maximal inhibitory concentration (IC50) in experiment [1] worked out at 1.7 µM; in experiment [2], 0.078 µM; in the experiment with phospho-AKT at S473 it was 0.21 µM; in experiment [3] it was 0.056 µM; in experiment [4], 2 µM; in the experiment on p-4E-BP1 at T70, 1.3 µM.
Take `CCOc1cc(Cl)nn2c(-c3ccccc3)c(-c3ccc(C4(N)CCC4)cc3)nc12` [Example 30, 1-[4-(6-Chloro-8-ethoxy-3-phenylimidazo[1,2-b]pyridazin-2-yl)phenyl]cyclobutanamine]: the IC50 in experiment [1] is 2.6 µM; in experiment [2], 0.058 µM; in the experiment with phospho-AKT at S473, 0.4 µM; in experiment [3], 0.051 µM; in experiment [4], 6 µM; in the experiment on p-4E-BP1 at T70, 2.5 µM.
